Columns and labels:
GTM-3 cells [1] = assay: Fibronectin ELISA of culture supernatants from treated GTM-3 cell monolayers (TGFβ2 mediated responses); format: cell-based, human; conditions: GTM-3 monolayers, 24 h; for TGFβ2-stimulated fibronectin levels in supernatants: FIG. 1
Procedure: FIG. 1A, FIG. 1B and FIG. 1C depict the effects of various amounts of PKC inhibitors on basal and stimulated (TGFβ2) fibronectin content in supernatants collected from treated monolayers of GTM-3 cells.
(§1) Cultured transformed human TM cells (“GTM-3”; see Pang I H, et al., 1994) were grown in a growth medium consisting of Dulbecco's modified Eagle's medium with Glutamax I (Gibco/Invitrogen, Grand Island, N.Y.) supplemented with 10% fetal bovine serum (Hyclone, Logan, Utah) and 50 μg/mL gentamicin (Gibco/Invitrogen). For assay, cultures were enzymatically-dissociated (TrypLE Express; Gibco/Invitrogen) then seeded into 24-well plates (Corning Costar, Acton, Mass.) and allowed to grow until monolayers reached approximately 90-95% confluence. Culture medium was then replaced with 0.25 mL serum- and antibiotic-free medium containing the appropriate test compound(s). Cells were incubated 24 h, at 5% CO2 and 37° C. Aliquots of culture supernatants were then assayed using ELISA kits for fibronectin (AssayPro, St. Charles, Mo.), PAI-I (American Diagnostica, Stamford, Conn.) and procollagen Type I C-peptide (TaKaRa Bio, Shiga, Japan).
(§2) The test compounds used were rottlerin (a specific PKC-delta inhibitor), Gö6976 (inhibits the calcium-dependent PKC isoforms alpha, beta, & mu) and bisindolylmaleimide I (a broad-spectrum PKC inhibitor).

GTM-3 cells [2] = assay: PAI-I ELISA of culture supernatants from treated GTM-3 cell monolayers (TGFβ2 mediated responses); format: cell-based, human; conditions: GTM-3 monolayers, 24 h; for TGFβ2-stimulated PAI-I levels in supernatants: FIG. 2
Procedure: FIG. 2A, FIG. 2B and FIG. 2C depicts the effects of PKC inhibition on basal and stimulated (TGFβ2) PAI-I content in supernatants collected from treated monolayers of GTM-3 cells.
as §1, §2

| Structure (SMILES) | fibronectin levels in supernatants (GTM-3 cells [1]; basal and TGFβ2-stimulated, tested concentrations, FIG. 1C) | TGFβ2-stimulated PAI-I levels in supernatants (GTM-3 cells [2]) | TGFβ2-stimulated fibronectin levels in supernatants (GTM-3 cells [1]) | basal fibronectin content in supernatants (GTM-3 cells [1]; basal, FIG. 1B) | basal PAI-I content in supernatants (GTM-3 cells [2]; basal, FIG. 2B) | basal fibronectin in supernatants (GTM-3 cells [1]; basal, 10 uM dose, FIG. 1A) |
| --- | --- | --- | --- | --- | --- | --- |
| CN(C)CCCn1cc(C2=C(c3c[nH]c4ccccc34)C(=O)NC2=O)c2ccccc21 [Bis I, bisindolylmaleimide I] | lack of effect | reduced TGFβ2-stimulated PAI-I levels only at the 100 nM dose | – | – | – | – |
| Cn1c2ccccc2c2c3c(c4c5ccccc5n(CCC#N)c4c21)CNC3=O [Gö6976] | – | without effect | without effect | without effect | without effect | – |
| CC(=O)c1c(O)c(C)c(O)c(Cc2c(O)c3c(c(C(=O)/C=C/c4ccccc4)c2O)OC(C)(C)C=C3)c1O [rottlerin] | – | dose-dependently reduces TGFβ2-stimulated PAI-I levels | effectively reduces TGFβ2-stimulated fibronectin levels at both tested concentrations | – | – | effectively reduced basal fibronectin |

From patent publication US20080153903A1, “INHIBITORS OF PROTEIN KINASE C-DELTA FOR THE TREATMENT OF GLAUCOMA” (ALCON MANUFACTURING, LTD., priority 2006, published 2008)
